Assay results from patent publication US20190167676A1, “METHODS FOR IMPROVING RESISTANCE TO SKELETAL MUSCLE FATIGUE” (Cytokinetics, Inc., priority 2012, published 2019).

Legend:
[1] = tested on: rat FDB muscle; test: Isometric tension force/frequency in rat FDB muscle in vitro; conditions: 10 μM, FIG. 1
Experimental: Adult male Sprague-Dawley rats (Charles River) between 250 and 300 g were anesthetized with a mixture of isoflurane gas and oxygen and quickly euthanized by cardiac excision. Hind feet were quickly removed at the ankle and placed in oxygenated Krebs solution at 4° C. (composition: 1 mM NaH2PO4, 5 mM KCl, 2 mM CaCl2, 1 mM MgSO4, 137 mM NaCl, 11 mM glucose and 1 mM NaHCO3). Feet were then pinned out in fresh oxygenated Krebs buffer at room temperature and the skin from the sole of the foot removed with scissors. In rats, a small branch of the main flexor digitorum brevis (FDB) muscle extends from the heel of the foot to the little digit. This was dissected free with small scissors and the tendons at each end of the muscle were cut. The muscle was pinned out in Krebs solution and the surrounding fascia removed. Silk thread was tied with a small loop and then knotted on to the end of each tendon, creating a silk loop at each end of the muscle. This was then hooked on to the fixed lever arm and force transducer of an 801A in vitro analysis system (Aurora Scientific, Ontario, Canada) and perfused with Krebs solution at 30° C.
The effect of 10 μM of Compound A on the force/frequency relationship was measured.

[2] = tested on: rat FDB muscle; test: Isometric fatigue protocol in isolated rat FDB muscle; conditions: 5 μM
Experimental: The isometric fatigue protocol was based on published studies (Germinario et al, 2004). Isolated rat FDB muscles were incubated at 4° C. with either 0.1% DMSO Krebs buffer or buffer containing 5 μM Compound A for 30 minutes. The tissues were then transferred to an isometric force transducer at 30° C. with the same concentration of DMSO or Compound A. Muscles were stimulated via field electrodes with supra maximal voltage to tetanus (120 Hz stimulation, 1 ms pulses, 350 ms duration) every minute and the length adjusted to achieve maximal tension development (Lo) which was recorded. The stimulation frequency was adjusted to achieve 50% of maximal force for each tissue: The average stimulation frequency required to achieve FMax 50% (mean +/− sd) for 0.1% DMSO was: 32.4 +/− 3.3 Hz, and for 5 μM Compound A it was 20.5 +/− 4.9 Hz. The muscles were then stimulated every six seconds for 15 minutes with field electrodes (1 ms stimulus, 350 ms trains) which produced a rapid drop in developed force over the course of 900 seconds for both the control fibers and Compound A fibers, with the control group showing a greater and more rapid drop in tension than the Compound A group.

[3] = tested on: rat EDL muscle; test: Isometric tension and relaxation time in rat EDL muscle in situ; format: in vivo
Experimental: As with the in vitro FDB muscle studies, another predominately fast muscle fiber type, the extensor digitorum long us (EDL), was stimulated toward contractions in unconscious rats in situ. In these isometric muscle studies (measuring force at fixed length), force, time to peak contraction, time to half relaxation after cessation of stimulation (RT1/2) and baseline tension were determined. These studies have the advantage that the nerve and muscle pair were intact and had typical blood flow to the muscle under investigation.
Rats were placed under anesthesia using isoflurane and the skin around the experimental leg was removed. The distal end of the EDL muscle and its associated tendon were then isolated. The rat was then placed on the platform of an Aurora in-situ muscle analysis rig (806C), maintained at body temperature via a circulating water system. The knee was immobilized in a clamp between two sharpened screws and the distal tendon cut and tied to the arm of a force transducer (Aurora Scientific, Ontario, Canada) using a silk suture. The muscle was stimulated directly via the peroneal nerve. […] Muscle contractile properties were assessed by applying an electrical current to the nerve and recording the force generated by the muscle via a servomotor. […]

[4] = tested on: rat EDL muscle; test: Fatigue in rat EDL muscle following femoral artery ligation (FAL); format: in vivo; conditions: for average stimulation frequency for force production similar to pre-dose: vehicle 30 Hz
Source text: Rats were placed under anesthesia using isoflurane and the skin around the experimental leg was removed. The distal end of the EDL muscle and its associated tendon were then isolated. The rat was then placed on the platform of an Aurora in-situ muscle analysis rig (806C), maintained at body temperature via a circulating water system. The knee was immobilized in a clamp between two sharpened screws and the distal tendon cut and tied to the arm of a force transducer (Aurora Scientific, Ontario, Canada) using a silk suture. The muscle was stimulated directly via the peroneal nerve. For isolation of the nerve, a 1 cm incision was made at the upper thigh and the overlying gastrocnemius muscle was cut to expose an approximate 5 mm stretch of the peroneal nerve. This was then dissected free of surrounding connective tissue and a pair of stainless steel needle electrodes (0.10 mm) were hooked around the exposed nerve. Muscle contractile properties were assessed by applying an electrical current to the nerve and recording the force generated by the muscle via a servomotor. The muscle length was adjusted to produce the maximum isometric force (Lo) after sub-maximal stimulation (30 Hz, 1 ms pulses, 350 ms train duration). Once Lo had been established, the nerve was stimulated every 2 minutes with a 30 Hz train (1 ms stimuli, 350 ms duration) for the course of the experiment. This preparation was stable for 4-6 hours.
With the rat in situ EDL muscle preparation described in Example 3, a fatiguing protocol was utilized where muscle was stimulated for 600 seconds. Vehicle-treated muscle was electrically stimulated at 30 Hz while the stimulation frequency was reduced in Compound A treated rats to ensure similar force production to pre-dose levels, prior to femoral artery ligation (average stimulation frequency of 29 and 26Hz, for 0.5 mg/kg and 1 mg/kg Compound A, respectively). This protocol produced a robust and reproducible fatigue in EDL muscle following femoral artery ligation, with a transient increase to 136.0±6.8% of initial force over the first 90-100 seconds, followed by a rapid drop in force before stabilization at approximately 40% of initial force. The initial rise in tension is believed to be due to Pi-induced increases in free intracellular Ca^2+ due to inhibition of sarco(endo)plasmic reticulum Ca^2+-ATPases (SERCAs) pumping into the SR (Allen, Physiol Rev 88:287-332, 2008). Following ligation of the femoral artery (R. A. Challiss et al. Biochem J. 1986 Dec. 1; 240(2):395-401) Compound A was administered in solution (50% PEG300/10% EtOH/40% Cavitron formulation) via a jugular vein catheter as a single slow bolus over a 2 min period.
Time for force to decrease to 50% of initial force was lengthened from 259±30 seconds to […] (P<0.0001, T-test).

[5] = target: fast skeletal troponin (Homo sapiens, UniProt P02585); conditions: isothermal titration calorimetry; cited from earlier work
fast skeletal troponin, sequence (P02585 whole entry): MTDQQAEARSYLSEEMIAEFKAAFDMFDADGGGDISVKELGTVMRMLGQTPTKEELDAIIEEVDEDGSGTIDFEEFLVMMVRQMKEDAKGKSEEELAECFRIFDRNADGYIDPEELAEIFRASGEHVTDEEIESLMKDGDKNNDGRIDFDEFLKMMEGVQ
fast skeletal troponin, sequence (P48788 whole entry partner): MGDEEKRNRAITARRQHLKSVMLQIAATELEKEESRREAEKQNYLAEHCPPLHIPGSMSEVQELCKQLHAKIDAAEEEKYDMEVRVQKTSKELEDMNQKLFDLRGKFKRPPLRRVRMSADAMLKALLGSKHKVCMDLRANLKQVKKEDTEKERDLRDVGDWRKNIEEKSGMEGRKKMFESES
fast skeletal troponin, sequence (P45378 whole entry partner): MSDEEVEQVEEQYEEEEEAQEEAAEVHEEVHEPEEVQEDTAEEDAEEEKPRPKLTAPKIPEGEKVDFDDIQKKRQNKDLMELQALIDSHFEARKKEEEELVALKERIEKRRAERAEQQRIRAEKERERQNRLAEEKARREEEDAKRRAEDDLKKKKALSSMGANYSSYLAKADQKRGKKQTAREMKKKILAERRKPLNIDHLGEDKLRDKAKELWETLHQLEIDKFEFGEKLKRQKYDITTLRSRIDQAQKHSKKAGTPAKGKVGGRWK

[6] = stimulated every six seconds for 15 minutes

## C#Cc1cnc2nc(O)n(C(CC)CC)c2n1 [Compound A, 6-ethynyl-1-(pentan-3-yl)-1H-imidazo[4,5-b]pyrazin-2-ol]
[1]
  sub-maximal force development (force/frequency relationship): increased sub-maximal force development
[2]
  average stimulation frequency required to achieve FMax 50% (mean +/- sd): 20.5 +/− 4.9 Hz
[2]; [6]
  force at 900 seconds, % of fMax: 28.4±1.2 % f Max
  force at 900 seconds, % of initial tension: 53.9±2.1 % of initial tension
[3]; 10 mg/kg
  increase in relaxation time: approximately 3.5 fold
[3]; femoral artery catheter, dose escalation up to 10 mg/Kg
  sub-maximal and maximal force in situ: increase in sub-maximal force without increasing maximal force
[4]; 0.5 mg/kg
  average stimulation frequency for force production similar to pre-dose: 29 Hz
[4]; 1 mg/kg
  average stimulation frequency for force production similar to pre-dose: 26 Hz
[4]; FAL rats
  time of rise to initial increase in force: 160 to 170 s
[4]; FAL rats vs vehicle, FIG. 5
  time to fatigue and tension-generating capacity: dose-dependent increase
[4]; FAL rats, jugular vein bolus
  initial increase in force: 156.3±10.4 % of initial force
[4]; FAL rats, vehicle 259±30
  time for force to decrease to 50% of initial force: 752 ± 64 s
[5]
  Kd: 40 nM
